Experimental data from ChEMBL document CHEMBL4627413, “Targeted Delivery of Antisense Oligonucleotides Using Neurotensin Peptides” (J Med Chem, 2020).

How the values were obtained:
Sortilin = target: T1, Sortilin (Homo sapiens, UniProt Q99523); assay: Substrate activity at human SORT1 expressed in HEK293 cells assessed as compound uptake incubated for 2 hrs by flow cytometry; format: ADME, cell-based; details: hek293, 2 h
T1 sequence (Q99523 whole entry): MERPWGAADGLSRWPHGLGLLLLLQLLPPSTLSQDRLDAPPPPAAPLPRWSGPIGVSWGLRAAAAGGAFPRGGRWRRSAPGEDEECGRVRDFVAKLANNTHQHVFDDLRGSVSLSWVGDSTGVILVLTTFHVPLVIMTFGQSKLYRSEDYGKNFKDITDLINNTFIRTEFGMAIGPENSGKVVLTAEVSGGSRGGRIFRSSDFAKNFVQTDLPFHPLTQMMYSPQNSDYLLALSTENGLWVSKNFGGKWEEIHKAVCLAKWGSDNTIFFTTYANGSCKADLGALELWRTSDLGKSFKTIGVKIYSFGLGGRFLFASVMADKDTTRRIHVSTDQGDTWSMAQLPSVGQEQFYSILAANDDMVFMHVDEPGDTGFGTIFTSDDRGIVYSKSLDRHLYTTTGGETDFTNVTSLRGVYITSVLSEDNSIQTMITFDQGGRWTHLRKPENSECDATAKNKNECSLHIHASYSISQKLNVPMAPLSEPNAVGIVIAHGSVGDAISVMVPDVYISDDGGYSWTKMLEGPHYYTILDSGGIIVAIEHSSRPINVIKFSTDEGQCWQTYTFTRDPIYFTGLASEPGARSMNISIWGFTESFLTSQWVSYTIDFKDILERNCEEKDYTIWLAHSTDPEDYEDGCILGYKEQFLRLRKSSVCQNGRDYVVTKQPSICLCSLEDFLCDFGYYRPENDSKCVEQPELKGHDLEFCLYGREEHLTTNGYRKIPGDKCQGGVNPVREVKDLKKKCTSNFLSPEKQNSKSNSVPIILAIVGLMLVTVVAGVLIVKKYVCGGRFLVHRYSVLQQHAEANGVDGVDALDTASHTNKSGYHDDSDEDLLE

[1] = Drug uptake in HEK293 cells incubated for 2 hrs by flow cytometry; format: ADME, cell-based; details: human, hek293, 2 h

CC[C@H](C)[C@H](NC(=O)[C@H](Cc1ccc(O)cc1)NC(=O)[C@@H]1CCCN1C(=O)[C@H](CCCNC(=N)N)NC(=O)[C@H](CCCNC(=N)N)NC(=O)[C@@H]1CCCN1C(=O)[C@H](CCCCN)NC(=O)[C@H](CC(N)=O)NC(=O)[C@H](CCC(=O)O)NC(=O)[C@H](Cc1ccc(O)cc1)NC(=O)[C@H](CC(C)C)NC(=O)CNC(=O)[C@@H]1CCCN1C(=O)[C@H](CO)NC(=O)[C@H](CO)NC(=O)CNC(=O)[C@H](C)NC(=O)[C@@H]1CCCN1C(=O)[C@@H]1CCCN1C(=O)[C@@H]1CCCN1C(=O)[C@@H](N)CCCCNC(=O)Cn1nnc2c1CC[C@H]1[C@@H](CC2)[C@H]1COC(=O)NCCOCCOCCNC(=O)CCCCC[N+]1=C(/C=C/C=C2/N(C)c3ccccc3C2(C)C)C(C)(C)c2ccccc21)C(=O)N[C@@H](CC(C)C)C(=O)O.[Cl-]
Vmax (Sortilin): 1367

CC[C@H](C)[C@H](NC(=O)[C@H](Cc1ccc(O)cc1)NC(=O)[C@@H]1CCCN1C(=O)[C@H](CCCNC(=N)N)NC(=O)[C@H](CCCNC(=N)N)NC(=O)[C@@H]1CCCN1C(=O)[C@H](CCCCN)NC(=O)[C@H](CC(N)=O)NC(=O)[C@H](CCC(=O)O)NC(=O)[C@H](Cc1ccc(O)cc1)NC(=O)[C@H](CC(C)C)NC(=O)[C@@H](N)CCCCNC(=O)Cn1nnc2c1CC[C@H]1[C@@H](CC2)[C@H]1COC(=O)NCCOCCOCCNC(=O)CCCCC[N+]1=C(/C=C/C=C2/N(C)c3ccccc3C2(C)C)C(C)(C)c2ccccc21)C(=O)N[C@@H](CC(C)C)C(=O)O.[Cl-]
Km (Sortilin): 0.08 µM
Vmax (Sortilin): 1397
Drug uptake [1]: Not Active
